From PubChem BioAssay (NCI) come the findings set out here.

What all share (assay): inhibition of tumour cell growth, NCI panel, 48 h
Assay [1] relates to HCT-15 colon.
Assay [2] concerns NCI/ADR-RES ovarian.
Assay [3] relates to HOP-92 NSCLC.
The test system of assay [4] is HL-60(TB) leukemia.
Assay [5] deals with OVCAR-3 ovarian.
The subject of assay [6] is LOX IMVI melanoma.
For assay [7], the system named is T-47D breast.
In assay [8] the test system is COLO 205 colon.
Assay [9] has as its system NCI-H522 lung.
For assay [10], the system named is KM12 colon.
Assay [11] deals with SK-MEL-5 melanoma.

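48-hour exposure; five concentrations; linearly interpolated endpoints. Abbreviation: GI50, concentration required for 50% inhibition of growth. TGI marks complete inhibition of growth.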 Bounds are passed on as bounds.

`COC1=C(N=[N+]=[N-])C(=O)c2ncccc2C1=O`: the TGI worked out at 20.4 µM in assay [1]; 25.6 µM in [2]; 2.56 µM in assay [3]; 3.98 µM in assay [4]; 15.5 µM in assay [5]; 7.78 µM in assay [6]. Moreover, the TGI in [7] was determined as 3.85 µM; in assay [8] it was 6.35 µM; in [9], 3.9 µM; in assay [10] it was 29.5 µM; in [11] it was 23.4 µM.
For `COC(=O)C(C)(N=Cc1ccccc1)c1ccccc1` (centres undefined), the TGI in [1], in assay [2], in [3], in [4], in [5] and in assay [6] was over 100 µM each time. Moreover, the TGI in assay [7], in assay [8], in [9], in assay [10] and in [11] was over 100 µM throughout.
On to `CCOC(=O)N1CCN(c2ccc3c(C)cc(C)nc3n2)CC1`, for which the TGI in assay [1], in assay [2], in assay [3], in [4], in assay [5] and in assay [6] was over 100 µM throughout. Also, the TGI in assay [7], in [8], in assay [9], in assay [10] and in [11] was over 100 µM in each case.
For `COC(=O)C1=C(C)NC2(O)C=CC(=O)C3C(=O)N(c4ccccc4)C(=O)C132` (centres undefined), the TGI in [1], in [2], in assay [3], in assay [4], in assay [5] and in [6] was over 100 µM throughout. For the same compound, the TGI in [7], in assay [8], in assay [9], in assay [10] and in [11] was over 100 µM in each case.
Turning to `O=c1[nH]nc(-c2ccccc2)n1/N=C/c1ccncc1`, the TGI in assay [1], in assay [2], in assay [3], in [4], in [5] and in [6] was over 100 µM in each case. Also, the TGI in assay [7], in assay [8], in assay [9], in [10] and in assay [11] was over 100 µM each time.
In the case of `Cn1ccn2c3nc4ccccc4nc3c(=O)c(C#N)c12`, the TGI in assay [1] was over 100 µM; in [2], over 81.8 µM; in assay [3], over 100 µM; in assay [4], over 100 µM; in assay [5] it was over 100 µM; in [6], over 100 µM. Moreover, the TGI is over 100 µM in assay [7]; over 100 µM in [8]; over 100 µM in assay [9]; over 100 µM in assay [10]; over 13.4 µM in [11].
In the case of `CCOC(=O)/C(=C\c1ccc(N(C)C)cc1)S(=O)(=O)C(F)(F)C(F)(F)C(F)(F)C(F)(F)F`, the TGI in assay [1], in assay [2], in [3], in [4], in assay [5] and in assay [6] was over 100 µM throughout. In addition, the TGI in [7], in [8], in [9], in assay [10] and in [11] was over 100 µM each time.
`Clc1ccc(Cc2nc3ccc(CCN4CCN(c5ccccc5)CC4)cc3[nH]2)cc1`: the TGI in assay [1] was 39.8 µM; in assay [2], 51.6 µM; in [3] it was 73.8 µM; in assay [4] it was over 100 µM; in assay [5], 27 µM; in assay [6] it was 27 µM. For the same compound, the TGI is 33.6 µM in assay [7]; 15.3 µM in assay [8]; 28.4 µM in assay [9]; 24.1 µM in assay [10]; 25.3 µM in assay [11].
Regarding `[Se]=P(c1ccccc1)(c1ccccc1)c1ccc(C(c2ccccc2)=P(c2ccccc2)(c2ccccc2)c2ccccc2)cc1`, the TGI in assay [1] is 18.8 µM; in assay [2], over 54.1 µM; in assay [3], 1.91 µM; in assay [4] it was 1.06 µM; in assay [5], 4.22 µM; in assay [6], 2.48 µM. Also, the TGI was 7.07 µM in [7]; 0.659 µM in assay [8]; 1.7 µM in assay [9]; 1.8 µM in assay [10]; 1.64 µM in [11].
On to `O=C(CN1CCN(Cc2ccccc2)CC1)N1CCCn2c1nc1ccccc1c2=O`, for which the TGI in assay [1] was over 100 µM; in assay [2] it was over 100 µM; in assay [3], 52.5 µM; in [4], over 100 µM; in assay [5] it was over 100 µM; in assay [6], over 100 µM. The TGI in assay [7], in assay [8], in assay [9], in [10] and in [11] was over 100 µM each time.
For the compound `CC(=O)NCCC1CN(C(=O)/C=C\C#C[Si](C)(C)C)c2ccccc21` (centres undefined), the TGI in [1] is 48.9 µM; in [2], 54.6 µM; in assay [3], over 100 µM; in assay [4] it was 81.3 µM; in assay [5], 84.1 µM; in [6], 44.3 µM. The TGI in assay [7] was 86.4 µM; in assay [8], over 100 µM; in [9] it was 24.3 µM; in assay [10], over 100 µM; in assay [11] it was over 100 µM.
On to `C/C(=N/NC(=S)Nc1ccccc1Cl)c1cccc(/C(C)=N\NC(=S)Nc2ccccc2Cl)n1`, for which the TGI in assay [1], in assay [2], in assay [3], in assay [4], in assay [5] and in [6] was over 100 µM throughout. The TGI in assay [7], in assay [8], in assay [9], in assay [10] and in assay [11] was over 100 µM each time.
As for `CC(C)CCC[C@@H](C)[C@H]1CCC2C3CC=C4C[C@@H](Oc5c6ccccc6nc6ccccc56)CCC4C3CCC21` (some centres undefined), the TGI in assay [1], in assay [2], in assay [3], in assay [4], in assay [5] and in [6] was over 50 µM in each case. The TGI in [7], in assay [8], in assay [9], in [10] and in assay [11] was over 50 µM in each case.
For `C=CC1ON(Cc2ccccc2)CCc2cc(OC)c(OC)cc21` (centres undefined), the TGI in [1] was over 100 µM; in [2], over 100 µM; in assay [3], over 100 µM; in assay [4] it was 94.4 µM; in assay [5], over 100 µM; in [6], over 100 µM. Also, the TGI in assay [7] was over 100 µM; in assay [8] it was over 100 µM; in assay [9], over 100 µM; in assay [10] it was over 100 µM; in assay [11], 31.6 µM.
Take `CCOC(=O)c1c(Br)c(-c2ccc(Br)cc2)c(Br)n1C`: the TGI in assay [1] was found to be 73 µM; in assay [2] it was 87.5 µM; in [3], 55.7 µM; in assay [4], 16.6 µM; in assay [5], 38.7 µM; in [6] it was 30.4 µM. For the same compound, the TGI in [7] is over 100 µM; in [8], 34.3 µM; in assay [9] it was 44.5 µM; in assay [10] it was 26.4 µM; in [11] it was 35.2 µM. In addition, the GI50 in assay [2] is 21.2 µM; in assay [3], 14.3 µM; in assay [4] it was 5.24 µM; in assay [6] it was 14.3 µM; in assay [9], 11.2 µM.
Turning to `O=C1/C(=C\c2cccc(Oc3ccccc3)c2)S(=O)(=O)C(c2ccccc2)N1c1ccccc1Cl` (centres undefined), the TGI in [1] is over 100 µM; in [2] it was over 100 µM; in assay [3] it was 73.5 µM; in assay [4], 33.6 µM; in assay [5], 64.3 µM; in assay [6], over 100 µM. Further, the TGI is over 100 µM in assay [7]; 33.5 µM in assay [8]; 49.1 µM in assay [9]; over 100 µM in [10]; 32 µM in [11].
Consider `COc1cc(OC)c2c(O)c3c(cc2c1)CC(C)(C)CC3=O`, for which the TGI in assay [1], in assay [2], in assay [3], in [4], in [5] and in assay [6] was over 100 µM in each case. Besides, the TGI in assay [7], in [8], in [9], in [10] and in assay [11] was over 100 µM throughout.
On to `O=C1Sc2ccc(Br)cc2C(=O)Sc2ccccc21`, for which the TGI in assay [1] is 46.5 µM; in assay [2] it was 60 µM; in assay [3], 33.6 µM; in [4], 9.71 µM; in [5], 27.2 µM; in assay [6], 25.3 µM. For the same compound, the TGI in assay [7] worked out at 31 µM; in [8] it was 28.4 µM; in [9], 22.1 µM; in assay [10], 33.8 µM; in assay [11], 29.5 µM.
Take `O=C1C(NCCc2ccc(O)c(O)c2)=CC(=O)c2ncccc21`: the TGI in assay [1] was 55.7 µM; in [2], 25.1 µM; in assay [3], 54.3 µM; in assay [4] it was 60.3 µM; in assay [5] it was 7.77 µM; in [6], 26.7 µM. In addition, the TGI in assay [7] was determined as 65.3 µM; in assay [8], 28 µM; in assay [9], 7.31 µM; in assay [10], 30.5 µM; in assay [11], 15.4 µM.
For the compound `O=C(/C=C/c1ccsc1)c1ccco1`, the TGI was 20.1 µM in [1]; 40.5 µM in assay [2]; 30.6 µM in assay [3]; 24 µM in assay [4]; 26.9 µM in [5]; 14.5 µM in [6]. In addition, the TGI in [7] was 27.2 µM; in [8] it was 32.8 µM; in assay [9] it was 4.67 µM; in assay [10], over 22.2 µM; in [11], 29.7 µM.
With `c1ccc(C2=Nc3nc4ccccc4n3C(c3ccccc3)C2)cc1` (centres undefined), the TGI in assay [1], in assay [2], in assay [3], in assay [4], in assay [5] and in [6] was over 100 µM in each case. In addition, the TGI in assay [7], in assay [8], in assay [9], in [10] and in assay [11] was over 100 µM each time.
In the case of `Clc1cc2c(c(CSC3=NCN(CC4CC4)CN3)c1)OCOC2`, the TGI in [1] is over 100 µM; in assay [2] it was 72.9 µM; in assay [3], over 100 µM; in assay [4], 33.7 µM; in assay [5] it was over 100 µM; in [6], over 100 µM. For the same compound, the TGI was 62.2 µM in assay [7]; 28.4 µM in assay [8]; 30.1 µM in assay [9]; over 100 µM in assay [10]; 32.2 µM in assay [11].
With `CCOc1cc(NC(C)=O)ccc1C(=O)NN1C(=O)C(Oc2ccccc2)C1c1ccccc1` (centres undefined), the TGI in assay [1], in assay [2], in assay [3], in assay [4], in assay [5] and in assay [6] was over 100 µM in each case. Further, the TGI in assay [7], in [8], in assay [9], in [10] and in [11] was over 100 µM each time.
Regarding `O=c1[nH]nc(-c2ccccc2)n1/N=C/c1c[nH]c2ccccc12`, the TGI in assay [1], in [2], in [3], in [4], in assay [5] and in assay [6] was over 100 µM each time. The TGI in assay [7], in assay [8], in [9], in [10] and in [11] was over 100 µM in each case.
